Experiments:
human GHSR1a [1] = molecular target: T1, human GHSR1a (Homo sapiens, UniProt Q92847); experiment: NanoBiT-based homogenous binding assay; settings: ghrelin-SmBiT and LEAP2-SmBiT tracers
human GHSR1a [2] = molecular target: T1, human GHSR1a; experiment: Receptor activation assay, CRE-controlled NanoLuc reporter; format: cell-based

T1 sequence (Q92847 whole entry): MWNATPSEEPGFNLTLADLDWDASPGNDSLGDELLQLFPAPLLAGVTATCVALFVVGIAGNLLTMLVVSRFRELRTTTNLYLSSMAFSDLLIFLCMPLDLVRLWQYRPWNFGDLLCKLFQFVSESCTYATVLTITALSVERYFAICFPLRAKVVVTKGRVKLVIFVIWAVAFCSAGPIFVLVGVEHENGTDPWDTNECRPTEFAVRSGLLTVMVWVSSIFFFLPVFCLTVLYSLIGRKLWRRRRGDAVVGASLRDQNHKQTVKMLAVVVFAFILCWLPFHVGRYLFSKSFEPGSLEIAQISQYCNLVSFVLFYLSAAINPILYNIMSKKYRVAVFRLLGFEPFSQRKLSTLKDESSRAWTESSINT

fold lower receptor binding activity compared to native human ghrelin (human GHSR1a [1]): ~15 fold
fold lower receptor activation potency compared to native human ghrelin (human GHSR1a [2]): ~7 fold
SMILES: CCCCCSC[C@H](NC(=O)[C@H](CO)NC(=O)CN)C(=O)N[C@@H](Cc1ccccc1)C(=O)N[C@@H](CC(C)C)C(=O)N[C@@H](CO)C(=O)N1CCC[C@H]1C(=O)N[C@@H](CCC(=O)O)C(=O)N[C@@H](Cc1c[nH]cn1)C(=O)N[C@@H](CCC(N)=O)C(=O)N[C@@H](CCCNC(=N)N)C(=O)N[C@H](C(=O)N[C@@H](CCC(N)=O)C(=O)N[C@@H](CCC(N)=O)C(=O)N[C@@H](CCCNC(=N)N)C(=O)N[C@@H](CCCCN)C(=O)N[C@@H](CCC(=O)O)C(=O)N[C@@H](CO)C(=O)N[C@@H](CCCCN)C(=O)N[C@@H](CCCCN)C(=O)N1CCC[C@H]1C(=O)N1CCC[C@H]1C(=O)N[C@@H](C)C(=O)N[C@@H](CCCCN)C(=O)N[C@@H](CC(C)C)C(=O)N[C@@H](CCC(N)=O)C(=O)N1CCC[C@H]1C(=O)N[C@@H](CCCNC(=N)N)C(=O)O)C(C)C [analog 1]
